# Test results from PMC6042199, “Inhibitory effects against α-glucosidase and α-amylase of the flavonoids-rich extract from Scutellaria baicalensis shoots and interpretation of structure–activity relationship of its eight flavonoids by a refined assign-score method” (Chemistry Central Journal, 2018).
# Columns and labels:
# [1] = test system: yeast α-glucosidase from Saccharomyces cerevisiae; test: α-glucosidase inhibitory effect (pNPG, AUC of absorbance at 405 nm); assay type: biochemical; settings: for IC50 α-Glucosidase: mean ± SD of three repeated tests, logarithmic regression; for Inhibitory effects α-glucosidase (acarbose equivalents): converted into acarbose equivalents
# Method: (§1) All solvents (analytical grade) were bought from Beijing Chemical Factory, and purified water was from a mili-Q system (Millipore, Billerica, MA).
# α-Glucosidase inhibitory effect was assayed as reported by Zhang et al.. […] Then, 30 μL pNPG solution (2 mM pNPG in 0.1 mM phosphate buffer) was added quickly to initiate the enzyme reaction. Absorbance was monitored at 405 nm every 15 min for 2 h using a microplate reader (Tecan infinite 200, Swiss).
# [2] = target: T1, porcine pancreatic α-amylase (Sus scrofa, UniProt P00690); test: α-amylase inhibitory effect (starch, dinitrosalicylic acid, 540 nm); assay type: biochemical; settings: for Contribution to the overall enzyme inhibitory effect of the extract, α-amylase: Contribution = [Ei/E0] × C × 100; for Inhibitory effects α-amylase (acarbose equivalents): converted into acarbose equivalents; for IC50: mean ± SD of three repeated tests, logarithmic regression
# T1 construct: purchased Sigma-Aldrich Co. (St. Louis, MO, USA)
# T1 sequence (P00690 16-511): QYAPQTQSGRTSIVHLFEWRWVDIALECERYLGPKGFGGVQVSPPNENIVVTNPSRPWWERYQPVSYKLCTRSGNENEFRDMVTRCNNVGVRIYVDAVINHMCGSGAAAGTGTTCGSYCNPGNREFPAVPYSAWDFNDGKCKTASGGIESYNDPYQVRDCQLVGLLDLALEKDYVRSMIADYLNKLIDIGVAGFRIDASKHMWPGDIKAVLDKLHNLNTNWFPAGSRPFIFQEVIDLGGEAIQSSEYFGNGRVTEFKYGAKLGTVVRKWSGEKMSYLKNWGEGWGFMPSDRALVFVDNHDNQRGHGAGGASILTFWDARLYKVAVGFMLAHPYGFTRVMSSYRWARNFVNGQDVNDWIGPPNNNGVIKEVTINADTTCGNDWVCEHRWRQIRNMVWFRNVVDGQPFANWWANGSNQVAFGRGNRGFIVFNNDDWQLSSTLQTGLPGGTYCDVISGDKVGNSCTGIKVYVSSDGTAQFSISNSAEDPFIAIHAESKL
# Method: as §1
# After incubation for 20 min at 37 °C, 300 μL starch solution (1%) in sodium phosphate buffer (0.02 M, pH 6.9 with 6 mM NaCl) was added, and the mixture was re-incubated for 20 min, followed by addition of 0.2 mL dinitrosalicylic acid. The new mixture was then boiled for 5 min and cooled to room temperature. Cooled mixture was diluted by adding 10 mL distilled water, and absorbance was measured at 540 nm using a UV–visible spectrophotometer (Shimadzu UV-1700, Japan). […] IC50 values were calculated by the logarithmic regression analysis.
# [3] = test system: α-glucosidase enzyme; set-up: method as in doi:10.1007/978-3-642-73461-8_2; settings: cited from earlier work
SMILES,final inhibitory effect against α-glucosidase ([1]; at 2 mg/mL),IC50 α-Glucosidase [1],inhibition at 2000 µg/mL ([2]; read-out: inhibition of α-amylase),"affinity exceeding that of the normal substrate, factor [3]",Inhibitory effects α-glucosidase (acarbose equivalents) [1],"Contribution to the overall enzyme inhibitory effect of the extract, α-amylase [2]",Inhibitory effects α-amylase (acarbose equivalents) [2],IC50 [2]
"C[C@H]1O[C@H](O[C@H]2[C@H](O)[C@@H](O)[C@@H](O[C@H]3[C@H](O)[C@@H](O)C(O)O[C@@H]3CO)O[C@@H]2CO)[C@H](O)[C@@H](O)[C@@H]1N[C@H]1C=C(CO)[C@@H](O)[C@H](O)[C@H]1O (stereo partly drawn) [Acarbose, acarbose, reference compound]",68.66%,996.02 ± 21.34 µg/mL,69.9%,10^4–10^5,–,–,–,–
"O=C(O)[C@H]1O[C@@H](Oc2cc(O)c3c(=O)cc(-c4ccc(O)cc4)oc3c2)[C@H](O)[C@@H](O)[C@@H]1O [Apigenin-7-O-G, apigenin-7-O-glucuronide]",–,543.28 ± 11.41 µg/mL,–,–,1.83 ± 0.02 μg acarbose/μg,2.74 ± 0.09%,1.04 ± 0.01 μg acarbose/μg,1470 µM
O=c1cc(-c2ccc(O)cc2)oc2cc(O)cc(O)c12 [Apigenin],–,231.13 ± 5.35 µg/mL,–,–,4.31 ± 0.08 μg acarbose/μg,–,–,–
"O=c1cc(-c2ccccc2)oc2cc(O)c(O)c(O)c12 [Baicalein, baicalein]",–,277.94 ± 6.21 µg/mL,–,–,3.58 ± 0.07 μg acarbose/μg,23.37 ± 0.98%,2.07 ± 0.02 μg acarbose/μg,1240 µM
"O=C(O)[C@H]1O[C@@H](Oc2cc3oc(-c4ccccc4)cc(=O)c3c(O)c2O)[C@H](O)[C@@H](O)[C@@H]1O [Baicalin, baicalin]",–,591.58 ± 12.21 µg/mL,–,–,1.68 ± 0.02 μg acarbose/μg,4.95 ± 0.13%,1.03 ± 0.01 μg acarbose/μg,1480 µM
"O=c1cc(-c2ccccc2)oc2cc(O)cc(O)c12 [Chrysin, chrysin]",–,422.67 ± 9.37 µg/mL,–,–,2.36 ± 0.03 μg acarbose/μg,6.91 ± 0.21%,1.51 ± 0.02 μg acarbose/μg,1770 µM
"O=C(O)[C@H]1O[C@@H](Oc2cc(O)c3c(=O)cc(-c4ccccc4)oc3c2)[C@H](O)[C@@H](O)[C@@H]1O [Chrysin-7-O-G, chrysin-7-O-glucuronide]",–,612.13 ± 15.34 µg/mL,–,–,1.63 ± 0.01 μg acarbose/μg,2.63 ± 0.07%,0.69 ± 0.01 μg acarbose/μg,2280 µM
"O=C(O)[C@H]1O[C@@H](Oc2cc3oc(-c4ccc(O)cc4)cc(=O)c3c(O)c2O)[C@H](O)[C@@H](O)[C@@H]1O [Scutellarin, scutellarin]",–,313.25 ± 7.28 µg/mL,–,–,3.18 ± 0.06 μg acarbose/μg,14.80 ± 0.66%,1.84 ± 0.02 μg acarbose/μg,799 µM
